In patent publication US6528528B2 (Warner-Lambert Company, priority 1997, dated 2003) one finds IC50, melting point and inhibition data, which are given here for 35 molecules.

Data set [1] addresses T1, rabbit reticulocyte 15-LO (Oryctolagus cuniculus, UniProt P12530).
T1 construct: Fifteen-lipoxygenase was obtained from phenylhydrazine-treated rabbits and purified per the method of Rapoport; from tissue; host or cells: reticulocytes of phenylhydrazine-treated rabbits
T1 sequence (P12530 1-663): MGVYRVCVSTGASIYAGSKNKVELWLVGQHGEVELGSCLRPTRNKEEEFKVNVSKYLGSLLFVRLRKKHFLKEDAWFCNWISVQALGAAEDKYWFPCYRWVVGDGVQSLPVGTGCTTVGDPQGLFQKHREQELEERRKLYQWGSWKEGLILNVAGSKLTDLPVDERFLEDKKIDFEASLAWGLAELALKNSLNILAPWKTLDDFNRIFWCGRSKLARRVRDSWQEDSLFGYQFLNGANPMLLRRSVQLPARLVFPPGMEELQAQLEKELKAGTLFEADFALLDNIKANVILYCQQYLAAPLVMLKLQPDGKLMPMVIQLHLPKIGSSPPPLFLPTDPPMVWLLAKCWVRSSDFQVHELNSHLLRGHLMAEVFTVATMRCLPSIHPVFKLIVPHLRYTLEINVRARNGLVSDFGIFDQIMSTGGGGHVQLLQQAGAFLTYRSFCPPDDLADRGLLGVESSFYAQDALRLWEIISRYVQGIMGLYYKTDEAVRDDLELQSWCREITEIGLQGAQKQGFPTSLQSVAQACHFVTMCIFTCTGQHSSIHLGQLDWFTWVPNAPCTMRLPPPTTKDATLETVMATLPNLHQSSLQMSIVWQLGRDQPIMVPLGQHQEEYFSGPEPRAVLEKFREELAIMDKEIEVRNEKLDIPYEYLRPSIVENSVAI
Briefly: Rabbit Reticulocyte 15-LO Assay (h15LO). The class given is biochemical. To be noted: for IC50: 2U rabbit reticulocyte 15-LO, 174 μM linoleic acid, 15 minutes at 4° C. Summed up:
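Linoleic acid oxidation to 13-HPODE measured at 4° C. over 15 minutes, using 174 μM substrate and 2U enzyme purified from phenylhydrazine-treated rabbits in PBS/0.2% Na cholate. Product peak areas calibrated with authentic 13-HODE; inhibition expressed versus maximal reaction.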

Where [2] appears, read: Table 1, read-out: h15LO % Inhibition at 10 μM.
The mark [3] stands for this setting: 0.25 h, Table 2, read-out: h15LO % @ 10 μM.

Like-named read-outs stand apart in the source and are kept apart here.

The term IC50 denotes the midpoint of a concentration-inhibition curve. A high value points to lower potency. One may read the melting point as the temperature of the solid-liquid transition.

With `COc1ccc(C(=O)Nc2ccc(Cl)cc2)cc1N` [Example 2, 3-Amino-4-methoxy-N-(4-chlorophenyl)-benzamide], the melting point was in the range of 191 to 192 °C. In data set [1] (Table 1), this molecule returned an IC50 of 290 nM.
For `COc1ccc(C(=O)Nc2cccnc2)cc1N` [Example 5, 3-Amino-4-methoxy-N-(3-pyridyl)-benzamide], the melting point lay within 193 to 196 °C. In addition, in data set [1] (Table 1), 38 nM corresponded to half-maximal inhibition (IC50).
Take `COc1ccc(C(=O)Nc2ccc(C)c(C)c2)cc1N` [Example 6, 3-Amino-4-methoxy-N-(3,4-dimethylphenyl)-benzamide]: the melting point lay in the range of 138 to 142 °C. Further, the inhibition at 10 µM in data set [1] (setting [2]) amounted to 79%.
`COc1ccc(C(=O)Nc2ccc(C)cc2)cc1N` [Example 7, 3-Amino-4-methoxy-N-(4-methylphenyl)-benzamide] displayed a melting point of 190 to 194 °C. Moreover, the inhibition at 10 µM in data set [1] (setting [2]) worked out at 67%.
For `COc1ccc(C(=O)Nc2ccc(F)cc2)cc1N` [Example 8, 3-Amino-4-methoxy-N-(4-fluorophenyl)-benzamide], the melting point was 164 to 167 °C. In data set [1] (Table 1), this molecule yielded an IC50 of 157 nM.
`Nc1cc(C(=O)Nc2ccccc2)ccc1F` [Example 9, 3-Amino-4-fluoro-N-phenyl-benzamide] came in with a melting point of 167 to 170 °C. Besides, the inhibition at 10 µM in data set [1] (setting [2]) is 38%.
For `CCOc1ccc(C(=O)Nc2ccccc2)cc1N` [Example 10, 3-Amino-4-ethoxy-N-phenyl-benzamide] the same measures were 189 to 190 °C and 42%.
`COc1ccc(C(=O)Nc2cc(C)cc(C)c2)cc1N` [Example 11, 3-Amino-4-methoxy-N-(3,5-dimethylphenyl)-benzamide]: the melting point is 155 to 162 °C. Further, the IC50 in data set [1] (Table 1) came out at 390 nM.
For `COc1ccc(C(=O)Nc2ccc(C)c(Cl)c2)cc1N` [Example 12, 3-Amino-4-methoxy-N-(3-chloro-4-methylphenyl)-benzamide], the melting point fell in the range of 153 to 157 °C. The molecule further had an IC50 in data set [1] (Table 1) of 73 nM.
With `COc1ccc(C(=O)Nc2ccc(F)cc2F)cc1N` [Example 14, 3-Amino-4-methoxy-N-(2,4-difluorophenyl)-benzamide], the melting point is 166 to 168 °C. The inhibition at 10 µM in data set [1] (setting [2]) turned out to be 68%.
As to `COc1ccc(C(=O)Nc2ccc(F)c(F)c2)cc1N` [Example 15, 3-Amino-4-methoxy-N-(3,4-difluorophenyl)-benzamide], the melting point lay in the range of 171 to 172 °C. The same molecule yielded an IC50 in data set [1] (Table 1) of 9 nM.
The like results for `COc1ccc(C(=O)Nc2cccc(Cl)c2)cc1N` [Example 16, 3-Amino-4-methoxy-N-(3-chlorophenyl)-benzamide] were, in that order, 144 to 146 °C and 79 nM.
With `CCc1ccc(C(=O)Nc2ccccc2)cc1N` [Example 17, 3-Amino-4-ethyl-N-phenyl-benzamide], the melting point fell in the range of 111 to 113 °C. The inhibition at 10 µM in data set [1] (setting [2]) amounted to 65%.
Turning to `CCc1ccc(C(=O)Nc2ccc(Cl)c(Cl)c2)cc1N` [Example 18, 3-Amino-4-ethyl-N-(3,4-dichlorophenyl)-benzamide], the melting point lay within 115 to 117 °C. Further, the IC50 in data set [1] (Table 1) was 2510 nM.
The like results for `CCc1ccc(C(=O)Nc2ccc(F)c(F)c2)cc1N` [Example 19, 3-Amino-4-ethyl-N-(3,4-difluorophenyl)-benzamide] were, in that order, 108 to 110 °C and 1100 nM.
Turning to `CSc1ccc(C(=O)Nc2ccccc2)cc1N` [Example 20, 3-Amino-4-methylsulfanyl-N-phenyl-benzamide], the melting point was in the range of 143 to 145 °C. For the same molecule, the IC50 in data set [1] (Table 1) turned out to be 203 nM.
The like results for `COc1ccc(NC(=O)c2ccc(Cl)c(Cl)c2)cc1N` [Example 23, 3,4-Dichloro-N-(3-amino-4-methoxyphenyl)-benzamide] were, in that order, 215 to 218 °C and 26 nM.
`O=C(Nc1ccccc1)c1cccc(Nc2ccccc2)c1` [Example 25, 3-Phenylamino-N-phenyl-benzamide] showed a melting point of 134 to 135 °C. The same molecule showed an IC50 in data set [1] (Table 2) of 6430 nM.
Molecule `COc1ccccc1Nc1cccc(C(=O)Nc2ccccc2)c1` [Example 27, 3-(2-Methoxy-phenylamino)-N-phenyl-benzamide] showed a melting point of 153 to 154 °C. Moreover, the inhibition at 10 µM in data set [1] (setting [3]) stood at 48%.
In turn, `COc1ccccc1Nc1cc(C(=O)Nc2ccccc2)ccc1OC` [Example 29, 3-(2-Methoxy-phenylamino)-4-methoxy-N-phenyl-benzamide] yielded a melting point of 155 to 156 °C. The IC50 in data set [1] (Table 2) is above 3000 nM.
`COc1ccc(C(=O)Nc2ccccc2)cc1Nc1cccc(Cl)c1` [Example 31, 3-(3-Chloro-phenylamino)-4-methoxy-N-phenyl-benzamide] came in with a melting point of 168 to 170 °C. In addition, the IC50 in data set [1] (Table 2) was 10 nM.
In the case of `COc1ccc(C(=O)Nc2ccccc2)cc1Nc1cccc(C)c1` [Example 32, 3-(3-Methyl-phenylamino)-4-methoxy-N-phenyl-benzamide], the melting point was 160 to 161 °C. 23 nM corresponded to half-maximal inhibition in data set [1] (Table 2) (IC50).
For the molecule `COc1ccc(C(=O)Nc2ccccc2)cc1Nc1cccc([N+](=O)[O-])c1` [Example 33, 3-(3-Nitro-phenylamino)-4-methoxy-N-phenyl-benzamide], the melting point was in the range of 220 to 221 °C. Moreover, in data set [1] (Table 2), the IC50 amounted to 12 nM.
As to `COc1ccc(C(=O)Nc2ccccc2)cc1Nc1ccc(C)cc1` [Example 34, 3-(4-Methyl-phenylamino)-4-methoxy-N-phenyl-benzamide], the melting point lay in the range of 187 to 188 °C. The molecule further gave an IC50 in data set [1] (Table 2) of 29 nM.
`COc1ccc(C(=O)Nc2ccccc2)cc1Nc1cc(C)cc(C)c1` [Example 36, 3-(3,5-Dimethyl-phenylamino)-4-methoxy-N-phenyl-benzamide] gave a melting point of 198 to 199 °C. This molecule also yielded an IC50 in data set [1] (Table 2) of 11 nM.
As for `O=C(Nc1ccccc1)c1ccc(F)c(Nc2ccccc2)c1` [Example 37, 3-Phenylamino-4-fluoro-N-phenyl-benzamide], the melting point was 132 to 133 °C. Further, in data set [1] (Table 2), the midpoint of inhibition, the IC50, lay at 2940 nM.
With `COc1ccc(C(=O)Nc2ccc(F)cc2)cc1Nc1ccccc1` [Example 39, 3-Phenylamino-4-methoxy-N-(4-fluorophenyl)-benzamide], the melting point was in the range of 151 to 152 °C. The molecule also showed an IC50 in data set [1] (Table 2) of 50 nM.
With `CCc1ccc(C(=O)Nc2ccccc2)cc1Nc1cccc(C(F)(F)F)c1` [Example 41, 4-Ethyl-3-(3-trifluoromethyl-phenylamino)-N-phenyl-benzamide], the melting point is 133 to 134 °C. Moreover, in data set [1] (setting [3]), the inhibition at 10 µM came out at 65%.
In turn, `CCOc1ccc(C(=O)Nc2ccccc2)cc1Nc1cccc(C(F)(F)F)c1` [Example 42, 4-Ethoxy-3-(3-trifluoromethyl-phenylamino)-N-phenyl-benzamide] showed a melting point of 184 to 185 °C. This molecule also registered an IC50 in data set [1] (Table 2) of 410 nM.
The like results for `CSc1ccc(C(=O)Nc2ccccc2)cc1Nc1cccc(C(F)(F)F)c1` [Example 43, 4-Methylsulfanyl-3-(3-trifluoromethyl-phenylamino)-N-phenyl-benzamide] were, in that order, 169 to 170 °C and 73 nM.
`COc1ccc(C(=O)Nc2ccccc2)cc1Nc1ccc(C2=NC(C)(C)CO2)cc1` [Example 44, 3-[4-(4,4-Dimethyl-4,5-dihydro-oxazol-2-yl)-phenylamino]-4-methoxy-N-phenyl-benzamide] showed a melting point of 221 to 222 °C. The molecule further showed an IC50 in data set [1] (Table 2) of 25 nM.
For the molecule `COc1ccc(C(=O)Nc2cccnc2)cc1Nc1cccc(C(F)(F)F)c1` [Example 45, 4-Methoxy-3-(3-trifluoromethyl-phenylamino)-N-(3-pyridyl)-benzamide], the melting point was in the range of 184 to 185 °C. The same molecule came in with an IC50 in data set [1] (Table 2) of 440 nM.
`COc1ccc(C(=O)Nc2ccc(F)cc2)cc1Nc1cc(C)cc(C)c1` [Example 46, 4-Methoxy-3-(3,5-dimethyl-phenylamino)-N-(4-fluorophenyl)-benzamide] showed a melting point of 199 to 200 °C. In addition, the IC50 in data set [1] (Table 2) worked out at 20 nM.
For `COc1ccc(C(=O)Nc2ccc(F)c(F)c2)cc1Nc1cccc(C(F)(F)F)c1` [Example 48, 4-Methoxy-3-(3-trifluoromethyl-phenylamino)-N-(3,4-difluorophenyl)-benzamide], the melting point fell in the range of 166 to 169 °C. Besides, the IC50 in data set [1] (Table 2) was 28 nM.
Turning to `COc1ccc(C(=O)Nc2ccc(Cl)c(Cl)c2)cc1NS(=O)(=O)c1cc(Cl)cc(Cl)c1` [Example 117, 3-(3,5-Dichloro-benzenesulfonylamino)-4-methoxy-N-(3,4-dichlorophenyl)-benzamide], the melting point is > 230 °C (dec.).
